# Assay results from patent US7271158B2, “Treatment of rumen acidosis with α-amylase inhibitors” (Pfizer Inc., priority 2000, dated 2007).
# What was measured:
# [1] = test system: S. aureus; assay: Minimum inhibitory concentrations in aerobes (agar dilution)
# [2] = test system: acute acidosis after carbohydrate challenge in cannulated cattle; assay: Acute acidosis model (carbohydrate challenge); type: in vivo, Holstein dried off cows and heifers
# Description: Acute Acidosis Model: Assessment of Acarbose [table] Procedures: Ten Holstein dried off cows and heifers (initial weight 740±27 (SE) kg, range=606–870 kg) were group-housed during the pre-treatment period and individually housed during the experimental period. Animals were moved to a head-gate during sample collection, treatment and first challenge. Subsequently, they were sampled and dosed in their individual pens. Animals were offered approximately 5 kg alfalfa hay, 16 kg silage, 6 kg concentrate and 0.5 kg straw daily in a total mixed ration offered in two feedings (60:40 concentrate:roughage diet ). They were bedded on straw only during the pre-treatment period. Water was provided ad libitum. Animals were adapted to the lactating ration for at least 10 days before treatments were administered. From a group of 6 dry cows and 5 non-lactating heifers, ten were selected based on previous exposure to challenge and general health. Animals were paired by body weight and were randomly assigned to control and acarbose treatment groups within pair, ensuring similar distribution of heifers and cows. On days 0–6 of treatment, animals received 1.07 mg acarbose/kg dissolved in ˜200 mL water through the rumen cannula just before AM (07:30) and PM (16:00) feedings. Treatment 1 animals received an equivalent amount of water only. On days 7 and 8, each animal was administered a challenge through the cannula. When pH reached ˜4.5 and there was evidence of L-lactate production, acute acidosis was considered to be induced. When an animal experienced acute acidosis by these criteria, rumen contents were removed and the rumen inoculated with rumen contents from a donor animal. Animals were weighed on days—1 and 5 for calculation of acarbose dosing and challenge amounts. To measure rumen fluid pH animals were fitted with a harness to hold an automatic pH data recording system. The rumen pH was recorded every 10 min during the days of challenge until an animal experienced acute acidosis. Rumen fluid samples were taken (˜50 mL) from the rumen cannula through a filtered sampling tube. […] The pH was measured immediately. […] In some cases the sample was filtered through gauze before pH measurement and acid treatment. This mixture was centrifuged for 10 min at 12000 g. One aliquot of the supernatant was removed for immediate lactate analysis, one frozen for subsequent lactate analysis using Sigma kit 826. A third aliquot was transferred to an auto-sampler vial for subsequent VFA analysis. An initial determination of L-lactate was made during the study to establish acidotic status using Sigma kit 735. Subsequently D and L-lactate were re-measured for statistical analysis as described below. VFA's were measured on a Hewlett Packard 6890 series gas chromatograph fitted with an auto-sampler and flame ionisation detector. The acids were resolved on a SGE Ltd. 25 metre BP21 column (0.33 mm O.D., 0.22 mm I.D. 0.25 um film thickness). Nitrogen was used as the carrier gas with a flow rate of 1.9 ml/min. The oven temperature was 165° C., and injection ports and detectors were held at 250° C. Concentrations were calculated by using crotonic acid as an internal standard, and the system was calibrated using a standard solution containing acetic, propionic, butyric, iso-valeric and n-valeric acids.
structure (smiles),measurement,setting,value
"CC1OC(OC2C(CO)OC(OC3C(CO)OC(O)C(O)C3O)C(O)C2O)C(O)C(O)C1NC1C=C(CO)C(O)C(O)C1O (stereo not shown) [Acarbose, acarbose]",MIC,[1]; S. aureus 3.4,>128 µg/mL
same,MIC,[1]; S. aureus 3.5,>128 µg/mL
same,MIC,[1]; S. aureus 5.1,>128 µg/mL
same,MIC,[1]; S. aureus 6.1,>128 µg/mL
same,MIC,[1]; S. aureus 8.2,>128 µg/mL
same,MIC,[1]; S. aureus 8.3,>128 µg/mL
same,MIC,[1]; S. aureus 9.3,>128 µg/mL
same,MIC,[1]; S. aureus 10.3,>128 µg/mL
same,MIC,[1]; S. aureus 10.4,>128 µg/mL
same,MIC,[1]; Staphylococcus aureus,> 128 µg/mL
same,MIC,"[1]; Staphylococcus aureus, NCTC6571",> 128 µg/mL
same,Group mean D-Lactate,[2]; 0 hours post second challenge,0.67 mM
same,Group mean L-Lactate,[2]; 0 hours post second challenge,0.35 mM
same,Group mean Total-Lactate,[2]; 0 hours post second challenge,1.02 mM
same,acute acidosis following carbohydrate challenge,"[2]; 1.07 mg/kg BW BID 7 days pre-challenge, via cannula",prevented acute acidosis
same,Group mean D-Lactate,[2]; 3 hours post second challenge,3.63 mM
same,Group mean L-Lactate,[2]; 3 hours post second challenge,1.28 mM
same,Group mean Total-Lactate,[2]; 3 hours post second challenge,4.91 mM
same,Group mean D-Lactate,[2]; 5 hours post second challenge,10.91 mM
same,Group mean L-Lactate,[2]; 5 hours post second challenge,3.08 mM
same,Group mean Total-Lactate,[2]; 5 hours post second challenge,13.99 mM
same,Group mean D-Lactate,[2]; 7 hours post second challenge,18.00 mM
same,Group mean L-Lactate,[2]; 7 hours post second challenge,4.93 mM
same,Group mean Total-Lactate,[2]; 7 hours post second challenge,22.93 mM
same,rumen pH,"[2]; after second carbohydrate challenge, all treated cattle, 1.07 mg/kg BW BID 7 days pre-challenge, via cannula",above 5.0
same,lactate level in rumen fluid,"[2]; after second challenge, all acarbose-treated animals (four of five controls >50 mM)",remained at zero
same,L-lactate production in response to the load,[2]; twice a day treatment,blocked
same,pH responses to a high carbohydrate load,[2]; twice a day treatment,reduced
